According to patent US7709516B2, “Helix 12 directed non-steroidal antiandrogens” (Endorecherche, Inc., priority 2005, dated 2010):
Where two headings read alike, the source gives them in different places.

Columns and labels:
[1] = tested on: Shionogi mouse mammary carcinoma cells; assay: Androgenic/antiandrogenic activity: inhibition of DHT-stimulated Shionogi cell number; type: cell-based; conditions: DHT-stimulated Shionogi cell number; for IC50: Mus musculus
Human Androgen Receptor = target: T1, Human Androgen Receptor (Homo sapiens, UniProt P10275); assay: Androgen receptor binding assay ([3H]R1881, HAP) in cytosol of HEK-293 cells transfected with hAR; conditions: relative to R1881 = 100, transfected cells
T1 sequence (P10275 1-920): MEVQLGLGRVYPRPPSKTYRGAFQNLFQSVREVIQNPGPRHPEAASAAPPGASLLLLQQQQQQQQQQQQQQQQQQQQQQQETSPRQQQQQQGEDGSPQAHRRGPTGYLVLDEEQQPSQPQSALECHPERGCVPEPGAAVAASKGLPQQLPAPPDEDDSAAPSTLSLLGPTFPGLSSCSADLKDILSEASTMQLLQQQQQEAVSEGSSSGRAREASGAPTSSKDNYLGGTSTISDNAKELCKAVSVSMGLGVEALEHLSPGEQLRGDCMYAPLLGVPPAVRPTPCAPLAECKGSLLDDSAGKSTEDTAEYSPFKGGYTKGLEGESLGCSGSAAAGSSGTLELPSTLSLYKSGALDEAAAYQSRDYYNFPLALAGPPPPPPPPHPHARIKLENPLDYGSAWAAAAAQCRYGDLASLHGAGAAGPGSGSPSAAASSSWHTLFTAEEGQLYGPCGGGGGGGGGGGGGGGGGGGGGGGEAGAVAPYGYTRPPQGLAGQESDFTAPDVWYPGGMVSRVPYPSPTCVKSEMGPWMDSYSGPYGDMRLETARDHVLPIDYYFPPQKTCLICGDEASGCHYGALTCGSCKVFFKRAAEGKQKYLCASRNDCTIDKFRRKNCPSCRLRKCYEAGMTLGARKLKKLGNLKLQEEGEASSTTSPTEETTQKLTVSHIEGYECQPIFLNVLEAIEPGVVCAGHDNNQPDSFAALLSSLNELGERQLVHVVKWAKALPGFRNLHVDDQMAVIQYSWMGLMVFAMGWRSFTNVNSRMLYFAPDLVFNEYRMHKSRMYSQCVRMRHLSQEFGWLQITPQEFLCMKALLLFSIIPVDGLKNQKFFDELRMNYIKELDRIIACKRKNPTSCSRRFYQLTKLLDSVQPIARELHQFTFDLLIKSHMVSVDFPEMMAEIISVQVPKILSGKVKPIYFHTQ

[2] = tested on: rat prostate, seminal vesicle, levator ani muscle; assay: Systemic antiandrogenic activity in orchidectomized immature male rats with DHT implant; type: in vivo; conditions: Rattus norvegicus, 168 h, rat +DHT, 0.5 mg/animal daily 7 days
[3] = read-out: Shionogi Antiandrogenic Activity IC50, Table 2
[4] = read-out: Lev Ani % inhibition, Table 2, s.c. or p.o. (route not marked), levator ani
[5] = read-out: Prostate % inhibition, Table 2, s.c. or p.o. (route not marked)
[6] = read-out: SV % inhibition, Table 2, s.c. or p.o. (route not marked), seminal vesicle
[7] = read-out: Shionogi Antiandrogenic Activity IC50, Table 1
[8] = Prostate cell, po, read-out: Lev Ani % inhibition, Table 1, p.o, levator ani
[9] = Prostate cell, po, read-out: SV % inhibition, Table 1, p.o, seminal vesicle
[10] = po, read-out: Prostate % inhibition, Table 1, p.o

Row | Compound | IC50 [1, 3] | Human Androgen Receptor Binding (%) RBA R1881 = 100 (Human Androgen Receptor; Table 2) | inhibition in vivo at 0.5 mg [2, 4] | inhibition in vivo at 0.5 mg [2, 5] | inhibition in vivo at 0.5 mg [2, 6] | IC50 [1, 7] | Human Androgen Receptor Binding (%) RBA R1881 = 100 (Human Androgen Receptor; Table 1) | inhibition in vivo at 0.5 mg [2, 8] | inhibition in vivo at 0.5 mg [2, 9] | inhibition in vivo at 0.5 mg [2, 10] | Shionogi Antiandrogenic Activity IC50 ([1]; Table 1)
1 | CCCC(c1ccc(OCCC2(O)CCN(c3ccc(C#N)c(C(F)(F)F)c3)CC2)cc1)N1CCCC1 (centres unmarked) [EM-8096] | 0.0196 µM | 6.9% | 50% | 8% | 55% |  |  |  |  |  | 
2 | CC(=O)Nc1ccc(OCCCN2C(=S)N(c3ccc(C#N)c(C(F)(F)F)c3)C(=O)C2(C)C)cc1 [EM-8101] |  |  |  |  |  | 0.0182 µM | 12.1% | 43% | 41% | 8% | 
3 | CC1(C)C(=O)N(c2ccc(C#N)c(C(F)(F)F)c2)C(=S)N1CCCOc1ccc(S(=O)(=O)N2CCCC2)cc1 [EM-8103] |  |  |  |  |  | 0.0415 µM | 29.3% | 16% | 37% | 18% | 
4 | N#Cc1ccc(N2CCC(O)(CCOc3ccc(S(=O)(=O)N4CCCC4)cc3)CC2)cc1C(F)(F)F [EM-8130] | 0.0283 µM | 4.5% | 8% | 15% | 20% |  |  |  |  |  | 
5 | CC(C)S(=O)(=O)c1ccc(OCCCN2C(=S)N(c3ccc(C#N)c(C(F)(F)F)c3)C(=O)C2(C)C)cc1 [EM-8131] |  |  |  |  |  | 0.0091 µM | 9.3% | 47% | 84% | 47% | 
6 | CC(C)Sc1ccc(OCCCN2C(=S)N(c3ccc(C#N)c(C(F)(F)F)c3)C(=O)C2(C)C)cc1 [EM-8132] |  |  |  |  |  | 0.024 µM | 1.0% | 67% | 86% | 47% | 
7 | CC1(C)C(=O)N(c2ccc(C#N)c(C(F)(F)F)c2)C(=S)N1CCCOc1ccc2c(c1)OCC2=O [EM-8154] |  |  |  |  |  | 0.0171 µM | 72.4% | 41% | 42% | 11% | 
8 | CC1(C)C(=O)N(c2ccc(C#N)c(C(F)(F)F)c2)C(=S)N1CCCOc1ccc(C(N)=O)cc1 [EM-8156] |  |  |  |  |  | 0.0079 µM | 17.5% | 47% | 65% | 32% | 
9 | COC1(CCOc2ccc(CN3CCCC3)cc2C)CCN(c2ccc(C#N)c(C(F)(F)F)c2)CC1 [EM-8157] | 0.0543 µM | <1.0% | 28% | 25% | 56% |  |  |  |  |  | 
10 | CC1(C)C(=O)N(c2ccc(C#N)c(C(F)(F)F)c2)C(=S)N1CCCOc1ccc2oc(=O)ccc2c1 [EM-8158] |  |  |  |  |  | 0.0035 µM | 88.8% | 32% | 70% | 38% | 
11 | CS(=O)(=O)c1ccc(OCCC2(O)CCN(c3ccc(C#N)c(C(F)(F)F)c3)CC2)cc1 [EM-8159] | 0.0334 µM | <1.0% | 23% | 24% | 51% |  |  |  |  |  | 
12 | CCS(=O)(=O)c1ccc(OCCCN2C(=S)N(c3ccc(C#N)c(C(F)(F)F)c3)C(=O)C2(C)C)cc1 [EM-8188] |  |  |  |  |  | 0.0139 µM | 15.6% | 68% | 85% | 45% | 
13 | CCCS(=O)(=O)c1ccc(OCCCN2C(=S)N(c3ccc(C#N)c(C(F)(F)F)c3)C(=O)C2(C)C)cc1 [EM-8225] |  |  |  |  |  | 0.0224 µM | 25.8% | 53% | 79% | 45% | 
14 | CC(C)S(=O)(=O)c1ccc(OCCC2(O)CCN(c3ccc(C#N)c(C(F)(F)F)c3)CC2)cc1 [EM-8228] | 0.0451 µM | <1.0% | 55% | 32% | 0% |  |  |  |  |  | 
15 | CCCS(=O)(=O)c1ccc(OCCC2(O)CCN(c3ccc(C#N)c(C(F)(F)F)c3)CC2)cc1 [EM-8229] | 0.0498 µM | <1.0% | 16% | 3% | 19% |  |  |  |  |  | 
16 | CCS(=O)(=O)c1ccc(OCCC2(O)CCN(c3ccc(C#N)c(C(F)(F)F)c3)CC2)cc1 [EM-8230] | 0.0759 µM | <1.0% | 35% | 0% | 23% |  |  |  |  |  | 
17 | Cc1cc(=O)oc2ccc(OCCCN3C(=S)N(c4ccc(C#N)c(C(F)(F)F)c4)C(=O)C3(C)C)cc12 [EM-8259] |  |  |  |  |  | 0.0136 µM | 39.6% | 53% | 53% | 31% | 
18 | N#Cc1ccc(N2CCC(O)(CCOc3ccc4oc(=O)ccc4c3)CC2)cc1C(F)(F)F [EM-8284] | 0.0128 µM | <1.0% | 21% | 0% | 0% |  |  |  |  |  | 
19 | Cc1cc(=O)oc2ccc(OCCC3(O)CCN(c4ccc(C#N)c(C(F)(F)F)c4)CC3)cc12 [EM-8285] | 0.0183 µM | <1.0% | 0% | 0% | 0% |  |  |  |  |  | 
20 | Cc1cc(=O)oc2cc(OCCCN3C(=S)N(c4ccc(C#N)c(C(F)(F)F)c4)C(=O)C3(C)C)ccc12 [EM-8329] |  |  |  |  |  | 0.0091 µM | 170.0% | 17% | 58% | 42% | 
21 | CC1(C)C(=O)N(c2ccc(C#N)c(C(F)(F)F)c2)C(=S)N1CCCOc1ccc(SC(F)(F)F)cc1 [EM-8342] |  |  |  |  |  | 0.0667 µM | 0.5% | 53% | 79% | 43% | 
22 | CC1(C)C(=O)N(c2ccc(C#N)c(C(F)(F)F)c2)C(=S)N1CCCOc1ccc(CN2CCSCC2)cc1 [EM-8344] |  |  |  |  |  | 0.0126 µM | 161.6% | 51% | 77% | 50% | 
23 | CC1(C)C(=O)N(c2ccc(C#N)c(Cl)c2)C(=S)N1CCCOc1ccc(S(C)(=O)=O)cc1 [EM-8360] |  |  |  |  |  | 0.0071 µM | 18.1% | 82% | 88% | 56% | 
24 | Cc1cc2c(C)c(C)c(=O)oc2cc1OCCCN1C(=S)N(c2ccc(C#N)c(C(F)(F)F)c2)C(=O)C1(C)C [EM-8385] |  |  |  |  |  |  | 50.5% | 20% | 41% | 17% | Partial agonist
25 | CC1(C)C(=O)N(c2ccc(C#N)c(C(F)(F)F)c2)C(=S)N1CCCOc1ccc2c(C(F)(F)F)cc(=O)oc2c1 [EM-8393] |  |  |  |  |  | 0.0445 µM | 7.7% | 35% | 60% | 3% | 
